Columns and labels:
Test in all cases: Competitive isoTOP-ABPP, cell lysates;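 for isoTOP-ABPP reactivity profile ratio, O00170 C122: Heavy/light ratio DMSO over fragment-treated so higher means more cysteine engagement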;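 for isoTOP-ABPP reactivity profile ratio, Q15084 C190: Heavy/light ratio DMSO over fragment-treated so higher means more cysteine engagement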
Assay type in all cases: binding
Conditions in all cases: 500 μm, in-vitro_ramos_231
[1] = molecular target: GNB2L1 C182 (P63244) (Homo sapiens, UniProt P63244)
Experimental: (§1) TEV digests were pressure loaded onto a 250 μm (inner diameter) fused silica capillary column packed with C18 resin (Aqua 5 μm, Phenomenex). The samples were analyzed by multidimensional liquid chromatography tandem mass spectrometry (MudPIT), using an LTQ-Velos Orbitrap mass spectrometer (Thermo Scientific) coupled to an Agilent 1200-series quaternary pump. The peptides were eluted onto a biphasic column with a 5 μm tip (100 μm fused silica, packed with C18 (10 cm) and bulk strong cation exchange resin (3 cm, SCX, Phenomenex,)) in a 5-step MudPIT experiment, using 0%, 30%, 60%, 90%, and 100% salt bumps of 500 mM aqueous ammonium acetate and using a gradient of 5-100% buffer B in buffer A (buffer A: 95% water, 5% acetonitrile, 0.1% formic acid; buffer B: 5% water, 95% acetonitrile, 0.1% formic acid) as has been described in Weerapana et al. Nat Protoc 2:1414-1425 (2007). Data was collected in data-dependent acquisition mode with dynamic exclusion enabled (20 s, repeat of 2). One full MS (MS1) scan (400-1800 m/z) was followed by 30 MS2 scans (ITMS) of the nth most abundant ions.
(§2) The ratios of heavy/light for each unique peptide (DMSO/compound treated; isoTOP-ABPP ratios, R values) were quantified with in-house CIMAGE software, using default parameters (3 ms s per peak and signal to noise threshold 2.5). Site-specific engagement of electrophilic fragments was assessed by blockade of IA-alkyne probe labeling. […] Ratios for unique peptide entries were calculated for each experiment; overlapping peptides with the same modified cysteine (e.g. different charge states, MudPIT chromatographic steps or tryptic termini) were grouped together and the median ratio was reported as the final ratio (R). The peptide ratios reported by CIMAGE were further filtered to ensure the removal or correction of low quality ratios in each individual dataset. The quality filters applied were the following: removal of half tryptic peptides; for ratios with high standard deviations from the median (90% of the median or above) the lowest ratio was taken instead of the median; removal of peptides with R=20 and only a single ms2 event triggered during the elution of the parent ion; manual annotation of all the peptides with ratios of 20, removing any peptides with low-quality elution profiles that remained after the previous curation steps. Proteome reactivity values for individual fragments were computed as the percentage of the total quantified cysteine-containing peptides with R values≥4 (defined as liganded cysteines) for each replicate experiment and the final proteome reactivity value was calculated as the mean for all replicate experiments for each fragment from both MDA-MB-231 and Ramos cellular proteomes.
(§3) Biological replicates of the same compound and cell-line were averaged if the standard deviation was below 60% of the mean; otherwise the lowest value of the ratio set was taken.

[2] = molecular target: GSTP1 C48 (P09211) (Homo sapiens, UniProt P09211)
Experimental: as §1, §2, §3

[3] = molecular target: IDH1 C269 (O75874) (Homo sapiens, UniProt O75874)
Experimental: as §1, §2, §3

[4] = molecular target: T1, IDH2 C308 (P48735) (Homo sapiens, UniProt P48735)
T1 sequence (P48735 40-452): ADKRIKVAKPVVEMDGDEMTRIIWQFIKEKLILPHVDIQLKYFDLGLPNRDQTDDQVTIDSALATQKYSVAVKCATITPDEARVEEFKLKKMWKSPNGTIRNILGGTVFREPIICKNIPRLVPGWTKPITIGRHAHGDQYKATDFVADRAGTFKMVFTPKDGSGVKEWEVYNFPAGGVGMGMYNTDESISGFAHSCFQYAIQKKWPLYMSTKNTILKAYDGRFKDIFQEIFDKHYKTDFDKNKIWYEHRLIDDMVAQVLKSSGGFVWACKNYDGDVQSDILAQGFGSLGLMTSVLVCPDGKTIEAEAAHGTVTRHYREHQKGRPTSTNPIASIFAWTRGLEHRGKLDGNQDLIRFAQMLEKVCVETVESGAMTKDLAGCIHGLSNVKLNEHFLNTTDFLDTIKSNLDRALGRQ
Experimental: as §1, §2, §3

[5] = molecular target: PRMT1 C109 (Q99873) (Homo sapiens, UniProt Q99873)
Experimental: as §1, §2, §3

[6] = molecular target: XPO1 C34 (O14980) (Homo sapiens, UniProt O14980)
Experimental: as §1, §2, §3

[7] = molecular target: T2, ACAT1 C119 (P24752) (Homo sapiens, UniProt P24752)
T2 sequence (P24752 34-427): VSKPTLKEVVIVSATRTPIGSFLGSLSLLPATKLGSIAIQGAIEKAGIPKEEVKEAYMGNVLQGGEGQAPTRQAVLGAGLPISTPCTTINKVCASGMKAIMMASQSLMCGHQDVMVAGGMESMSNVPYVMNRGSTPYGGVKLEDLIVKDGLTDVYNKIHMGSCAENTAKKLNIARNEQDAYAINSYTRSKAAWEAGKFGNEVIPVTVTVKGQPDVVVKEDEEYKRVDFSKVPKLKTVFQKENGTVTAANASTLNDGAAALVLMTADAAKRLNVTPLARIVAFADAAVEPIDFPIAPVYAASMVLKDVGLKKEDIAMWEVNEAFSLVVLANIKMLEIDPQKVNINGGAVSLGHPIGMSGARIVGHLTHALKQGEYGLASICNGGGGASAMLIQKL

[8] = molecular target: T3, ACAT1 C196 (P24752) (Homo sapiens, UniProt P24752)
T3 sequence (P24752 34-427): T2 sequence (P24752 34-427)

[9] = molecular target: T4, ACAT1 C413 (P24752) (Homo sapiens, UniProt P24752)
T4 sequence (P24752 34-427): T2 sequence (P24752 34-427)

[10] = molecular target: T5, PDE12 C108 (Q6L8Q7) (Homo sapiens, UniProt Q6L8Q7)
T5 sequence (Q6L8Q7 43-609): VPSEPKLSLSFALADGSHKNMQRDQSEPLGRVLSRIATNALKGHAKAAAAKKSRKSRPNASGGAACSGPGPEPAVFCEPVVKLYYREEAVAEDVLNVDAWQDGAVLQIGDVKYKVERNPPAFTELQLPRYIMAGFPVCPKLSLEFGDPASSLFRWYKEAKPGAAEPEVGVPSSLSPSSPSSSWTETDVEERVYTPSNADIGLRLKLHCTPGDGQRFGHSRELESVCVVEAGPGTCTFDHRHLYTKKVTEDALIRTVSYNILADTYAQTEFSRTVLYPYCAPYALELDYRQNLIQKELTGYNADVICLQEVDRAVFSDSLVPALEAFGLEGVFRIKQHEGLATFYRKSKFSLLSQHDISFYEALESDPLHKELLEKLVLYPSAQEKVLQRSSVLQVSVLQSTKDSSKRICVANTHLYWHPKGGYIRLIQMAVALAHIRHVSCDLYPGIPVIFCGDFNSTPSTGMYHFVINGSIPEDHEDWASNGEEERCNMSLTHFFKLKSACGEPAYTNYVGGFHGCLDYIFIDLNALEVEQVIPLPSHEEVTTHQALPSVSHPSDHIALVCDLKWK
Experimental: as §1, §2, §3

[11] = molecular target: T6, PDIA6 C190 (Q15084) (Homo sapiens, UniProt Q15084);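 for isoTOP-ABPP reactivity profile ratio, Q15084 C190: Heavy/light ratio DMSO over fragment-treated so higher means more cysteine engagement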
T6 sequence (Q15084 20-440): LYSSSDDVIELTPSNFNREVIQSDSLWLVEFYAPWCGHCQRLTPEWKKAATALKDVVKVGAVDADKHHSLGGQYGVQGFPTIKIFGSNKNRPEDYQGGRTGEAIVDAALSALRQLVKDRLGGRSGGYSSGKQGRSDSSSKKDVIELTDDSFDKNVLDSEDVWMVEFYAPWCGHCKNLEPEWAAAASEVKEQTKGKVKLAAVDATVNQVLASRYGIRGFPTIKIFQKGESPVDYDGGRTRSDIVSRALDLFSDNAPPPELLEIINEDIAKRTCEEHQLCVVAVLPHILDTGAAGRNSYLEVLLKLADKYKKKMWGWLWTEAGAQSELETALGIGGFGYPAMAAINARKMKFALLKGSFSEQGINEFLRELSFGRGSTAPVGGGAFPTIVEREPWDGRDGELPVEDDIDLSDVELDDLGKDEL
Experimental: as §1, §2, §3

[12] = molecular target: T7, PDIA6 C55 (Q15084) (Homo sapiens, UniProt Q15084)
T7 sequence (Q15084 20-440): T6 sequence (Q15084 20-440)
Experimental: as §1, §2, §3

[13] = molecular target: SAMHD1 C522 (Q9Y3Z3) (Homo sapiens, UniProt Q9Y3Z3)
Experimental: as §1, §2, §3

[14] = molecular target: SMARCC2 C145 (Q8TAQ2) (Homo sapiens, UniProt Q8TAQ2)
Experimental: as §1, §2, §3

[15] = molecular target: UBE2L3 C86 (P68036) (Homo sapiens, UniProt P68036)
Experimental: as §1, §2, §3

[16] = molecular target: T8, UBE2S C118 (Q16763) (Homo sapiens, UniProt Q16763)
T8 sequence (Q16763 1-222): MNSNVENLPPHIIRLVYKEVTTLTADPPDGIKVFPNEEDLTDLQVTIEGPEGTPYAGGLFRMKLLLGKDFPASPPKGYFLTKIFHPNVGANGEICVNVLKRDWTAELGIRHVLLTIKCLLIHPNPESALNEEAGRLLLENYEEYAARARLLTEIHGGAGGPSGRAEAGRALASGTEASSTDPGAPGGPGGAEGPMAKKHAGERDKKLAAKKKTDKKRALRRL
Experimental: as §1, §2, §3

[17] = molecular target: ZNF217 C286 (O75362) (Homo sapiens, UniProt O75362)
Experimental: as §1, §2, §3

[18] = molecular target: T9, AIP C122 (O00170) (Homo sapiens, UniProt O00170);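 note: Heavy/light ratio DMSO over fragment-treated so higher means more cysteine engagement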
T9 sequence (O00170 1-330): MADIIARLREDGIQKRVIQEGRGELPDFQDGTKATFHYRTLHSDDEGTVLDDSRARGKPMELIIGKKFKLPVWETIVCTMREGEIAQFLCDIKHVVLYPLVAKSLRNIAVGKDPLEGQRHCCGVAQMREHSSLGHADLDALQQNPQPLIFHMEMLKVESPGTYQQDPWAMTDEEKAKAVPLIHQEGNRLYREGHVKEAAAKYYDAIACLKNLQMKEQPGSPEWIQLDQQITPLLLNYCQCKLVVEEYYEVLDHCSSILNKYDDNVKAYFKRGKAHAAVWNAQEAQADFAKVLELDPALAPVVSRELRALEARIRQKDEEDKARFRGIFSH
Experimental: as §1, §2, §3

[19] = molecular target: LRBA C1704 (P50851) (Homo sapiens, UniProt P50851)
Experimental: as §1, §2, §3

[20] = molecular target: T10, ACAT1 C126 (P24752) (Homo sapiens, UniProt P24752)
T10 sequence (P24752 34-427): T2 sequence (P24752 34-427)

SMILES: O=C(CCl)Nc1cc(C(=O)O)cc(C(F)(F)F)c1 [compound 36]
- isoTOP-ABPP reactivity ratio, P63244_C182 [1]: 1.3
- isoTOP-ABPP reactivity ratio, P09211_C48 [2]: 1.6
- isoTOP-ABPP reactivity ratio, O75874_C269 [3]: 1.7
- isoTOP-ABPP reactivity ratio, P48735_C308 [4]: 1.3
- isoTOP-ABPP reactivity ratio, Q99873_C109 [5]: 1.0
- isoTOP-ABPP reactivity ratio, O14980_C34 [6]: 1.3
- isoTOP-ABPP reactivity ratio, P24752_C119 [7]: 1.2
- isoTOP-ABPP reactivity ratio, P24752_C196 [8]: 1.5
- isoTOP-ABPP reactivity ratio, P24752_C413 [9]: 2.7

SMILES: COC(=O)C1Cc2ccccc2CN1C(=O)CCl (stereo not shown) [compound 39]
- isoTOP-ABPP reactivity ratio, P63244_C182 [1]: 1.0
- isoTOP-ABPP reactivity ratio, P09211_C48 [2]: 2.0
- isoTOP-ABPP reactivity ratio, Q6L8Q7_C108 [10]: 3.2
- isoTOP-ABPP reactivity ratio, Q15084_C190 [11]: 7.0
- isoTOP-ABPP reactivity ratio, Q15084_C55 [12]: 3.9
- isoTOP-ABPP reactivity ratio, Q99873_C109 [5]: 1.5
- isoTOP-ABPP reactivity ratio, Q9Y3Z3_C522 [13]: 1.1
- isoTOP-ABPP reactivity ratio, Q8TAQ2_C145 [14]: 1.2
- isoTOP-ABPP reactivity ratio, P68036_C86 [15]: 1.9
- isoTOP-ABPP reactivity ratio, Q16763_C118 [16]: 1.4
- isoTOP-ABPP reactivity ratio, O14980_C34 [6]: 1.3
- isoTOP-ABPP reactivity ratio, O75362_C286 [17]: 20.0
- isoTOP-ABPP reactivity ratio, P24752_C119 [7]: 1.7
- isoTOP-ABPP reactivity ratio, P24752_C196 [8]: 3.0
- isoTOP-ABPP reactivity ratio, P24752_C413 [9]: 2.7

SMILES: Cc1ccc(C(F)(F)F)cc1NC(=O)CCl [compound 49]
- isoTOP-ABPP reactivity profile ratio, O00170_C122 [18]: 4.8
- isoTOP-ABPP reactivity profile ratio, P50851_C1704 [19]: 4.0
- isoTOP-ABPP reactivity profile ratio, Q15084_C190 [11]: 7.7
- isoTOP-ABPP reactivity profile ratio, Q15084_C55 [12]: 12.8
- isoTOP-ABPP reactivity profile ratio, Q99873_C109 [5]: 2.0
- isoTOP-ABPP reactivity profile ratio, Q9Y3Z3_C522 [13]: 3.0
- isoTOP-ABPP reactivity profile ratio, P68036_C86 [15]: 1.9
- isoTOP-ABPP reactivity profile ratio, O14980_C34 [6]: 1.9
- isoTOP-ABPP reactivity profile ratio, O75362_C286 [17]: 1.0
- isoTOP-ABPP reactivity profile ratio, P24752_C119 [7]: 4.9
- isoTOP-ABPP reactivity profile ratio, P24752_C196 [8]: 4.7
- isoTOP-ABPP reactivity profile ratio, P24752_C413 [9]: 2.6
- isoTOP-ABPP reactivity profile ratio, P24752_C126 [20]: 20.0

Source: US10670605B2, “Cysteine reactive probes and uses thereof” (The Scripps Research Institute, priority 2015, dated 2020)
